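Method: 48-hour compound exposure of cells in 96-well plates, five concentrations, linear interpolation of endpoints. Abbreviation: GI50, concentration required for 50% inhibition of growth.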 Active and inactive are the calls of the source. No stated cut-off is given here; in the data, active = GI50 up to about 1.1 µM and inactive = higher.

Some test systems named below: MDA-MB-231; U-251; NCI/ADR-RES; ACHN; HL-60; CAKI-1; NCI-H23; Malme-3M; SF-539; NCI-H226; MDA-N; SNB-19; UO-31; KM12; TK-10; NCI-H522; SK-OV-3; MDA-MB-435; SK-MEL-2; SK-MEL-28.
Common to all, as to experiment: NCI-60 cell line screen, 48 h

As to `COc1ccc(-c2c3c(n(C4OC(COC(C)=O)C(OC(C)=O)C(OC(C)=O)C4OC(C)=O)c(=S)c2C#N)CCCC3)cc1` (stereo not given), the GI50 was 55.8 µM (inactive) in the assay on MDA-MB-231; 45 µM (inactive) in the assay on U-251; 54.1 µM (inactive) in the assay on NCI/ADR-RES; 55.6 µM (inactive) in the assay with ACHN; 62.5 µM (inactive) in the assay on HL-60; 20.5 µM (inactive) in the assay with CAKI-1. In addition, the GI50 in the assay with NCI-H23 was 37.9 µM (inactive); with Malme-3M it was 82.6 µM (inactive); in the assay on SF-539, 69.5 µM (inactive); in the assay with NCI-H226, > 100 µM (inactive); in the assay with MDA-N it was 91.4 µM (inactive); with SNB-19 it was 24.7 µM (inactive). For the same compound, the GI50 was 64.7 µM (inactive) with UO-31; > 100 µM (inactive) with KM12; > 100 µM (inactive) with TK-10; 25.3 µM (inactive) with NCI-H522; > 100 µM (inactive) in the assay with SK-OV-3; > 100 µM (inactive) in the assay with MDA-MB-435. In addition, the GI50 was 16.2 µM (inactive) with SK-MEL-2 and 61.9 µM (inactive) with SK-MEL-28.
`CC(O)C1(CNc2cc(Cl)nc(N)n2)CCCC1` (stereo not given): the GI50 in the assay with MDA-MB-231, in the assay on U-251, in the assay with NCI/ADR-RES, in the assay with ACHN, in the assay on HL-60 and in the assay with CAKI-1 was > 100 µM (inactive) throughout. Moreover, the GI50 was 90.4 µM (inactive) with NCI-H23; > 100 µM (inactive) in the assay with Malme-3M; > 100 µM (inactive) with SF-539; > 100 µM (inactive) in the assay with NCI-H226; > 100 µM (inactive) with MDA-N; > 100 µM (inactive) in the assay with SNB-19. In addition, the GI50 in the assay with UO-31, in the assay on KM12, with TK-10, with NCI-H522, with SK-OV-3 and with MDA-MB-435 was > 100 µM (inactive) in each case. Further, the GI50 in the assay on SK-MEL-2 and in the assay with SK-MEL-28 was > 100 µM (inactive) throughout.
On to `C[C@]12CC[C@H]3[C@@H](CCC4=CC(=O)C=C[C@@]43OC(=O)C(F)(F)F)[C@@H]1CCC2=O`, for which the GI50 with MDA-MB-231 was > 100 µM (inactive); in the assay with U-251, > 100 µM (inactive); in the assay on NCI/ADR-RES it was > 65.8 µM (inactive); with ACHN it was > 100 µM (inactive); in the assay on HL-60, > 100 µM (inactive); in the assay with CAKI-1, > 100 µM (inactive). For the same compound, the GI50 in the assay on NCI-H23 is > 100 µM (inactive); in the assay with Malme-3M it was 0.558 µM (active); in the assay on SF-539 it was > 100 µM (inactive); in the assay on NCI-H226, > 100 µM (inactive); in the assay on MDA-N it was > 100 µM (inactive); in the assay with SNB-19, > 33.6 µM (inactive). For the same compound, the GI50 with UO-31 was > 100 µM (inactive); in the assay with KM12, > 100 µM (inactive); in the assay on TK-10, > 100 µM (inactive); in the assay with NCI-H522 it was > 84.1 µM (inactive); in the assay on SK-OV-3 it was > 100 µM (inactive); with MDA-MB-435, > 100 µM (inactive). The GI50 in the assay with SK-MEL-2 and in the assay with SK-MEL-28 was > 100 µM (inactive) each time.
Turning to `COP(=O)(OC)C(Nc1ccc(Cc2ccc(NC(c3ccco3)P(=O)(OC)OC)cc2)cc1)c1ccco1` (stereo not given), the GI50 was 15.9 µM (inactive) in the assay with MDA-MB-231; 5.33 µM (inactive) in the assay with U-251; > 100 µM (inactive) with NCI/ADR-RES; 20.9 µM (inactive) in the assay with ACHN; > 100 µM (inactive) in the assay with HL-60; 26.3 µM (inactive) with CAKI-1. The GI50 in the assay with NCI-H23 was 14 µM (inactive); with Malme-3M, 47.9 µM (inactive); in the assay with SF-539 it was 4.79 µM (inactive); in the assay with NCI-H226 it was > 100 µM (inactive); with MDA-N, > 100 µM (inactive); with SNB-19 it was 11.9 µM (inactive). Besides, the GI50 in the assay with UO-31 is 79.1 µM (inactive); in the assay with KM12 it was > 100 µM (inactive); in the assay with TK-10, 8.77 µM (inactive); in the assay on NCI-H522, 28.3 µM (inactive); with SK-OV-3 it was 18.8 µM (inactive); in the assay on MDA-MB-435, > 100 µM (inactive). Moreover, the GI50 is 14 µM (inactive) in the assay on SK-MEL-2 and > 100 µM (inactive) in the assay with SK-MEL-28.
Regarding `Cc1ccc([N+](=O)[O-])cc1S(=O)(=O)Nc1ccc(C2=NN(c3ccc([N+](=O)[O-])cc3[N+](=O)[O-])C(c3cccs3)C2)cc1` (stereo not given), the GI50 with MDA-MB-231 is 15 µM (inactive); with U-251, 19.5 µM (inactive); in the assay with NCI/ADR-RES, 17.2 µM (inactive); with ACHN, 22.4 µM (inactive); with HL-60, 23.1 µM (inactive); in the assay on CAKI-1 it was 25.5 µM (inactive). The GI50 was 18.7 µM (inactive) with NCI-H23; 25.9 µM (inactive) with Malme-3M; 27 µM (inactive) in the assay with SF-539; 22.2 µM (inactive) in the assay on NCI-H226; 16.2 µM (inactive) with MDA-N; 27.9 µM (inactive) in the assay on SNB-19. Moreover, the GI50 in the assay on UO-31 was 23.8 µM (inactive); in the assay on KM12, 21 µM (inactive); in the assay with TK-10, 30 µM (inactive); in the assay on NCI-H522, 10.5 µM (inactive); in the assay on SK-OV-3, 26.1 µM (inactive); in the assay on MDA-MB-435 it was 21 µM (inactive). Besides, the GI50 was 12.1 µM (inactive) in the assay on SK-MEL-2 and 56.5 µM (inactive) with SK-MEL-28.
Regarding `Oc1cc(O)c2c(c1)OC(c1ccc(O)c(O)c1)C(O)C2c1c(O)cc(O)c2c1OC(c1ccc(O)c(O)c1)C(O)C2` (stereo not given), the GI50 in the assay with MDA-MB-231 is > 100 µM (inactive); in the assay on U-251 it was > 100 µM (inactive); with NCI/ADR-RES it was > 100 µM (inactive); in the assay with ACHN, > 100 µM (inactive); in the assay with HL-60, 0.0323 µM (active); with CAKI-1, 25.4 µM (inactive). The GI50 in the assay on NCI-H23, in the assay with Malme-3M, in the assay with SF-539, in the assay with NCI-H226, in the assay on MDA-N and in the assay on SNB-19 was > 100 µM (inactive) in each case. For the same compound, the GI50 in the assay with UO-31 was > 100 µM (inactive); in the assay with KM12, 46.5 µM (inactive); with TK-10, > 100 µM (inactive); in the assay on NCI-H522, > 100 µM (inactive); in the assay with SK-OV-3 it was > 100 µM (inactive); with MDA-MB-435, > 100 µM (inactive). Also, the GI50 in the assay with SK-MEL-2 and in the assay with SK-MEL-28 was > 100 µM (inactive) each time.

The values are drawn from ChEMBL document CHEMBL1201862, “PubChem BioAssay data set” (2004).
